The values below come from publication PMC9571594, “Development of Semisynthetic Apoptosis-Inducing Agents Based on Natural Phenolic Acids Scaffold: Design, Synthesis and In-Vitro Biological Evaluation” (Molecules, 2022).

SMILES strings stand for the structures. Where two headings read alike, the source gives them in different places.

A word on the IC50: it is the point on the concentration scale where inhibition reaches its midpoint. By viability is commonly meant a read-out of living cells in per cent, often relative to untreated cells.

Assay [1] relates to PANC-1 cells. The experiment in a line: MTT cell viability assay, PANC-1. Type of assay: cell-based, human. The conditions noted are these: for IC50 / viability at 15.625 µg/mL / viability at 31.25 µg/mL / viability at 62.5 µg/mL / viability at 125 µg/mL / viability at 250 µg/mL / viability at 500 µg/mL: Homo sapiens, PANC-1. The procedure:
MCF-7 cells (Human breast adenocarcinoma), HepG2 (human hepatocellular carcinoma), A549 (human lung adenocarcinoma), Caco-2 (colon carcinoma), PANC-1 (human pancreatic cancer), and Vero cells (derived from normal kidney cells) were supplied by (Holding Company for Biological Products and Vaccines VACSERA; Giza, Egypt). The cells were cultured in PRMI 1640 medium (Lonza, Switzerland) supplemented with 10% fetal bovine serum (Gibco), 1% penicillin and 1% streptomycin (Sigma Aldrich, Saint Louis, MO, USA) at 37 °C under an atmosphere of 5% CO2 and 95% air.
The effect of parent compounds and their derivatives were assessed by (3-(4,5-dimethylthiazol-2-yl)-2,5diphenyl-tetrazolium bromide) MTT assay. […] After a merged sheet of cells developed, the growth media was decanted from the 96-well microtiter and refilled with different concentrations of compounds (µg/mL), and the plate was incubated at 37 °C for 48 h to minimize exposure to the dissolving agent (Supporting Information).
MTT solution (BIO BASIC CANADA INC) was prepared [5 mg/mL in phosphate buffered saline (PBS)], added to each well and incubated for 4 h, then after removing the media, 200 μL of DMSO was added to each well to solubilize the formazan crystals and the optical density of the formazan product was measured at 560 nm using microplate reader (mindray, MR-96A). The results were calculated as the mean of the three independent experiments. […]
Determination of sample cytotoxicity on cells (MTT protocol) […]
well) and incubated at 37°C for 24 hours to develop a complete monolayer sheet.
2- Growth medium was decanted from 96 well micro titer plates after confluent sheet of cells were formed, cell monolayer was washed twice with wash media.
3- two-fold dilutions of tested sample was made in RPMI medium with 2% serum […]
4- 0.1 ml of each dilution was tested in different wells leaving 3 wells as control, receiving only maintenance medium.
5- Plate was incubated at 37°C and examined. Cells were checked for any physical signs of toxicity, e.g. partial or complete loss of the monolayer, rounding, shrinkage, […]
6- MTT solution was prepared (5mg/ml in PBS) (BIO BASIC CANADA INC).
8- 20ul MTT solution were added to each well. Place on a shaking table, 150rpm for 5 minutes, to thoroughly mix the MTT into the media.
10) Dump off the media. (dry plate on paper towels to remove residue if necessary. […] 9 ش - ايلعلا هبضهلا - مطقملا / ىسيئرلا لمعملا […]
In general terms: Tetrazolium dyes change colour on reduction, which living cells bring about.

Assay [2] has as its system Caco-2 cells. The experiment in a line: Annexin V-FITC/PI apoptosis assay by flow cytometry. The assay is classed as cell-based. Details: key: % of cells. The conditions noted are these: annexin-V FITC/PI staining, 24h. The procedure:
In order to determine the percentage of viable, apoptotic and necrotic cells after treatment with our compounds, double-staining with fluorescein isothiocyanate (FITC) and PI was performed. Annexin V-FITC Apoptosis Detection Kit (BioVision, CA, USA) was used. Briefly, cultured Caco-2 were treated with the tested compounds or DMSO for 24h. Cells were then collected by centrifugation at 2000 rpm for 5 min, and the pellet was washed with PBS then centrifuged again at 2000 rpm for 5 min then resuspended in 500μL of the kit’s binding buffer before adding the Annexin V-FITC and PI. The cells were then incubated at room temperature in the dark for 5 min. Annexin V-FITC binding was measured using FACS Calibur flow cytometer (BD biosciences, USA) (Ex = 488 nm, Em = 533 nm, FL1 filter for annexin and FL2 filter for PI).

Setting [3] is: Panc1, MTT report T-4-019-5, Conc. ug/ml, read-out: IC50.

As for `O=C(O)/C=C/c1ccc(O)c(O)c1` [Compound 1, Caffeic acid], the IC50 in assay [1] (MTT, 48 h, average of triplicates, read-out: IC50 (μM) ± SD PANC-1) was determined as 1290 µM. Also, in assay [1] (Panc1, 15.625 ug/ml), the viability at 15.625 µg/mL came out at 100% and the Toxicity % is given as 0%. Also, in assay [1] (Panc1, 31.25 ug/ml), the viability at 31.25 µg/mL was found to be 101% and the Toxicity % is given as 0%. Further, in assay [1] (Panc1, 62.5 ug/ml), the viability at 62.5 µg/mL was 99.8% and the Toxicity % turned out to be 0.1812%. In assay [1] (Panc1, 125 ug/ml), the viability at 125 µg/mL is 91.8% and the Toxicity % came out at 8.243%. Besides, in assay [1] (Panc1, 250 ug/ml), the viability at 250 µg/mL was 48.3% and the Toxicity % is reported as 51.72%. In assay [1] (Panc1, 500 ug/ml), the viability at 500 µg/mL was found to be 29.7% and the Toxicity % came out at 70.29%. Besides, the half-maximal inhibitory concentration (IC50) in assay [1] (setting [3]) amounted to 251 µg/mL. In assay [2], the “Apoptosis Total” value worked out at 11.31, the “Early Apoptosis” value was determined as 3.41, the “Late Apoptosis” value was determined as 5.98 and the Necrosis stood at 1.92.
With `COc1cc(/C=C/C(=O)O)ccc1O` [Compound 2, Ferulic acid], in assay [1] (Panc1, 15.625 ug/ml), the viability at 15.625 µg/mL was 100% and the Toxicity % turned out to be 0%. Also, in assay [1] (Panc1, 31.25 ug/ml), the viability at 31.25 µg/mL is 99.7% and the Toxicity % is 0.2717%. Moreover, in assay [1] (Panc1, 62.5 ug/ml), the viability at 62.5 µg/mL worked out at 100% and the Toxicity % is 0%. For the same compound, in assay [1] (Panc1, 125 ug/ml), the viability at 125 µg/mL is 86.5% and the Toxicity % is reported as 13.5%. For the same compound, in assay [1] (Panc1, 250 ug/ml), the viability at 250 µg/mL came out at 24.9% and the Toxicity % came out at 75.09%. Besides, in assay [1] (Panc1, 500 ug/ml), the viability at 500 µg/mL came to 28.5% and the Toxicity % stood at 71.47%. Further, in assay [1] (setting [3]), the IC50 was found to be 195 µg/mL. In assay [2], the “Apoptosis Total” value was determined as 13.22, the “Early Apoptosis” value is recorded as 5.17, the “Late Apoptosis” value came to 6.48 and the Necrosis came to 1.57.
